Results taken from US20130102580A1, “COMPOSITIONS AND METHODS RELATED TO DEOXYCHOLIC ACID AND ITS POLYMORPHS” (Kythera Biopharmaceuticals, Inc., priority 2011, published 2013).

Key:
Type in all cases: physicochemical
[1] = Form conversions via heating (XRPD)
Procedure: 20 mg of DCA Form B was weighed in an alumina crucible and heated from 30° C. to 150° C. at a ramp rate of 10° C./min and then held at 150° C. for 30 minutes. The material was cooled to ambient temperature rapidly on the instrument and analyzed by XRPD.
19 mg of DCA Form B was weighed in an alumina crucible and heated from 30° C. to 135° C. at a ramp rate of 10° C./min and then held at 135° C. for 30 minutes. The material was cooled to ambient temperature rapidly on the instrument and analyzed by XRPD.

[2] = Slurry stability in EtOH/water (XRPD)
Procedure: To evaluate form stability under slurry conditions, Forms A and B were slurried in about 1:1.2 v/v EtOH/water at ambient temperature and at 50° C. […] Approximately 217 mg of DCA Form B was mixed with 1.5 mL of EtOH/water (1:2.37 v/v). The mixture was heated at 50° C. with stirring for 2 hours and an aliquot was filtered to isolate wet solids for XRPD analysis.

[3] = Humidity stress (XRPD)
Procedure: Approximately 15 mg of Form B lot was stored at 95% relative humidity (RH) at ambient temperature. […] This surprising humidity/temperature stability of Form B was further evidenced from the following experiments. Form B samples were stored at 95% relative humidity (RH) and ambient temperature, and at 75% RH and 40° C. […] The increase of water content appeared to reach a plateau after an initial water sorption period.

[4] = Drying experiments: form conversion and stability on drying under vacuum (XRPD, HPLC); conditions: for Degradation by HPLC after drying: dried further for 24 hours
Procedure: Conversion of Form C to Form B was evaluated at 40° C. under vacuum. Two different lots of 215 mg and 134 mg of Form C were dried under vacuum at 40° C.
To evaluate the stability of DCA Form B at 50° C. and 70° C., two lots of Form C were dried at 50° C. and 70° C. for 2 hours. […] The samples were dried further for 24 hours and retained for HPLC analysis.
Another drying study was performed to evaluate the stability of Form B DCA dried at 50° C. with deionized water (DI-water) and EtOH. Samples of DCA (2.0 g) were combined with DI water and EtOH. The samples were then dried under vacuum for an extended period of time at 50° C.
The form conversion of Form C to Form B at approximately 45° C. under vacuum was analyzed by XRPD every 20 minutes. FIG. 4 graphically illustrates the conversion of the Form C to Form B upon heating.
All the experiments were cooled at 10° C./h to 20° C. and left to stir overnight. A final portion of deionized water (Water #3) was added and the mixtures were stirred for 3 hours.

[5] = about 1:1.2 v/v EtOH/water, ambient temperature

Row | Relative thermodynamic stability of the polymorphs ([1]; conversions observed upon heating: C→B→D→A) | Form conversion on slurrying (XRPD) [2, 5] | Form conversion on heating (XRPD) ([1]; 30° C. to 135° C. at 10° C./min, held at 135° C. for 30 minutes) | Form conversion on heating (XRPD) ([1]; 30° C. to 150° C. at 10° C./min, held at 150° C. for 30 minutes) | Form conversion on slurrying (XRPD) ([2]; EtOH/water 1:2.37 v/v, 50° C., 4 hours) | Form conversion on slurrying (XRPD) ([2]; about 1:1.2 v/v EtOH/water, 50° C., 2 hours) | Form conversion under humidity stress (XRPD) ([3]; 75% RH, 40° C., 11 days) | Form conversion under humidity stress (XRPD) ([3]; 95% RH, ambient temperature, 10 days) | Form conversion under humidity stress (XRPD) ([3]; 95% RH, ambient temperature, 11 days) | Degradation by HPLC after drying ([4]; 50° C.) | Degradation by HPLC after drying ([4]; 70° C.) | Stability by HPLC when dried with DI-water and EtOH ([4]; under vacuum, extended period, 50° C.) | Polymorphic form by XRPD after drying ([4]; dried at 50° C., 2 hours) | Polymorphic form by XRPD after drying ([4]; dried at 70° C., 2 hours) | Polymorphic form by XRPD after drying ([4]; under vacuum at 40° C., 2 hours, two lots) | Polymorphic form by XRPD after drying ([4]; under vacuum at 40° C., 18 hours) | Polymorphic form by XRPD after drying ([4]; under vacuum at 65° C., 60 hours, solids crystallized from EtOH/water) | Structure (SMILES) | Stability to prolonged heating ([4]; heating up to 70° C.)
1 | most thermodynamically stable polymorph | converted to Form C | – | – | – | – | – | – | – | – | – | – | – | – | – | – | – | C[C@H](CCC(=O)O)[C@H]1CC[C@H]2[C@@H]3CC[C@@H]4C[C@H](O)CC[C@]4(C)[C@H]3C[C@H](O)[C@]12C [Form A, deoxycholic acid] | –
2 | – | did not show any form conversion | complete conversion to Form D | complete conversion to Form A | remained to be Form B | afforded Form C | no form conversion | no conversion to Form C | no form conversion | no degradation | no degradation | stable | – | – | – | – | – | C[C@H](CCC(=O)O)[C@H]1CC[C@H]2[C@@H]3CC[C@@H]4C[C@H](O)CC[C@]4(C)[C@H]3C[C@H](O)[C@]12C [Form B, deoxycholic acid] | stable to prolonged heating at up to 70 °C
3 | – | – | – | – | – | – | – | – | – | – | – | – | form conversion to Form B was complete | form conversion to Form B was complete | converted to Form B | complete conversion to Form B | converted to Form B | C[C@H](CCC(=O)O)[C@H]1CC[C@H]2[C@@H]3CC[C@@H]4C[C@H](O)CC[C@]4(C)[C@H]3C[C@H](O)[C@]12C [Form C, deoxycholic acid] | –
